Assay results as given in paper PMC7377239, “Cardiovascular Effects of Polychlorinated Biphenyls and Their Major Metabolites” (Environmental Health Perspectives, 2020).
Read-outs that look alike come from different tables or passages of the source.

Experiments:
[1] = test system: iCell cardiomyocytes (human iPSC-derived cardiomyocytes); test: High-content imaging of cytotoxicity and mitochondrial integrity in iPSC-CMs; format: cell-based; settings: Homo sapiens; for viability at 0.01 µM / activity at 0.01 µM / viability at 0.1 µM / activity at 0.1 µM / viability at 1 µM / activity at 1 µM / viability at 10 µM / activity at 10 µM / viability at 100 µM / activity at 100 µM: Cardiomyocyte, 0.00 µM = 100.00; for viability at 0.1 µM / activity at 0.1 µM: 0.10 µM; for minimal effective concentration: iPSC-CM
Procedure, shortened: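 Cardiomyocytes grown on gelatinized 384-well plates received fresh medium on the experiment day and were then exposed to chemicals at 0.01–100μM. Nuclei and mitochondria were labeled with Hoechst 33342 and MitoTracker™ Orange, then fixed, and imaged on an ImageXpress® Micro Confocal system. Four-parameter logistic concentration–response fits in R, with a one-standard-deviation vehicle cutoff, gave point-of-departure values.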

HUVECs = test: High-content imaging cytotoxicity in HUVECs, 24 h; format: cell-based, human; settings: Homo sapiens, HUVEC, 24 h, HUVECs; for viability at 0.01 µM / activity at 0.01 µM / viability at 0.1 µM / activity at 0.1 µM / viability at 1 µM / activity at 1 µM / viability at 10 µM / activity at 10 µM / viability at 100 µM / activity at 100 µM: 0.00 µM = 100.00; for viability at 0.1 µM / activity at 0.1 µM: 0.10 µM; for minimal effective concentration: top concentration 100.00 µM
Procedure, shortened: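 Confluent HUVEC monolayers, passages 1–5, received test chemicals for 24 h. Cytotoxicity was scored from triple-stain high-content images, with PODs defined by a one-SD deviation from 0.5% DMSO vehicle controls.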

[2] = 24 hr, read-out: huvec.cyto.24hr
[3] = 24 hr, read-out: huvec.mito.24hr
[4] = 24 hr, read-out: huvec.mitoint.24hr
[5] = 24 hr, read-out: huvec.nma.24hr
[6] = 24 hrs, read-out: huvec.tc.24hrs

Molecule `Oc1ccc(-c2ccc(Cl)cc2)cc1` [4'-OH PCB3] has a viability at 0.01 µM ([1]; 1.5 h, read-out: cm.cam.90min) of 98.1%, an activity at 0.01 µM ([1]; 1.5 h, read-out: cm.mii.90min) of 97% and an activity at 0.01 µM ([1]; 1.5 h, read-out: cm.mito.90min) of 98.1%. The viability at 0.01 µM ([1]; 1.5 h, read-out: cm.tc.90min) was 98.1%, the viability at 0.1 µM ([1]; 1.5 h, read-out: cm.cam.90min) was 101% and the activity at 0.1 µM ([1]; 1.5 h, read-out: cm.mii.90min) was 100%. The activity at 0.1 µM ([1]; 1.5 h, read-out: cm.mito.90min) was 101%, the viability at 0.1 µM ([1]; 1.5 h, read-out: cm.tc.90min) was 102% and the viability at 1 µM ([1]; 1.5 h, read-out: cm.cam.90min) was 100%. The activity at 1 µM ([1]; 1.5 h, read-out: cm.mii.90min) was 98.2%, the activity at 1 µM ([1]; 1.5 h, read-out: cm.mito.90min) was 100% and the viability at 1 µM ([1]; 1.5 h, read-out: cm.tc.90min) was 100%. The viability at 10 µM ([1]; 1.5 h, read-out: cm.cam.90min) was 98%, the activity at 10 µM ([1]; 1.5 h, read-out: cm.mii.90min) was 98.5% and the activity at 10 µM ([1]; 1.5 h, read-out: cm.mito.90min) was 97.9%. The viability at 10 µM ([1]; 1.5 h, read-out: cm.tc.90min) was 97.9%, the viability at 100 µM ([1]; 1.5 h, read-out: cm.cam.90min) was 0% and the activity at 100 µM ([1]; 1.5 h, read-out: cm.mii.90min) was 0%. It also gave an activity at 100 µM ([1]; 1.5 h, read-out: cm.mito.90min) of 0%, a viability at 100 µM ([1]; 1.5 h, read-out: cm.tc.90min) of 0.0231% and a viability at 0.01 µM ([1]; 24 h, read-out: cm.cam.24hrs) of 98.2%. For the same molecule, the activity at 0.01 µM ([1]; 24 h, read-out: cm.mii.24hrs) was 96.5%, the activity at 0.01 µM ([1]; 24 h, read-out: cm.mito.24hrs) was 95.9% and the viability at 0.01 µM ([1]; 24 h, read-out: cm.tc.24hrs) was 98.1%. For the same molecule, the viability at 0.1 µM ([1]; 24 h, read-out: cm.cam.24hrs) was 99.2%, the activity at 0.1 µM ([1]; 24 h, read-out: cm.mii.24hrs) was 99.8% and the activity at 0.1 µM ([1]; 24 h, read-out: cm.mito.24hrs) was 97.4%. It also gave a viability at 0.1 µM ([1]; 24 h, read-out: cm.tc.24hrs) of 99%, a viability at 1 µM ([1]; 24 h, read-out: cm.cam.24hrs) of 104% and an activity at 1 µM ([1]; 24 h, read-out: cm.mii.24hrs) of 106%. It also gave an activity at 1 µM ([1]; 24 h, read-out: cm.mito.24hrs) of 103%, a viability at 1 µM ([1]; 24 h, read-out: cm.tc.24hrs) of 105% and a viability at 10 µM ([1]; 24 h, read-out: cm.cam.24hrs) of 102%. The activity at 10 µM ([1]; 24 h, read-out: cm.mii.24hrs) was 93.5%, the activity at 10 µM ([1]; 24 h, read-out: cm.mito.24hrs) was 103% and the viability at 10 µM ([1]; 24 h, read-out: cm.tc.24hrs) was 102%. The viability at 100 µM ([1]; 24 h, read-out: cm.cam.24hrs) was 0.07%, the activity at 100 µM ([1]; 24 h, read-out: cm.mii.24hrs) was 9.32% and the activity at 100 µM ([1]; 24 h, read-out: cm.mito.24hrs) was 0.05%. The viability at 100 µM ([1]; 24 h, read-out: cm.tc.24hrs) was 0.07%, the minimal effective concentration ([1]; 1.5 h, read-out: cm.cam.90min POD) was 12.4 µM and the minimal effective concentration ([1]; 1.5 h, read-out: cm.mii.90min POD) was 16 µM. It also gave a minimal effective concentration ([1]; 1.5 h, read-out: cm.mito.90min POD) of 11.5 µM, a minimal effective concentration ([1]; 1.5 h, read-out: cm.tc.90min POD) of 11.3 µM and a minimal effective concentration ([1]; 24 h, read-out: cm.cam.24hrs POD) of 32.3 µM. The minimal effective concentration ([1]; 24 h, read-out: cm.mii.24hrs POD) was 15.4 µM, the minimal effective concentration ([1]; 24 h, read-out: cm.mito.24hrs POD) was 37.2 µM and the minimal effective concentration ([1]; 24 h, read-out: cm.tc.24hrs POD) was 38.4 µM. It also gave a viability at 0.01 µM (HUVECs; [2]) of 86.4%, an activity at 0.01 µM (HUVECs; [3]) of 85.6% and an activity at 0.01 µM (HUVECs; [4]) of 96.8%. For the same molecule, the activity at 0.01 µM (HUVECs; [5]) was 96.6%, the viability at 0.1 µM (HUVECs; [2]) was 96.6% and the activity at 0.1 µM (HUVECs; [3]) was 95.3%. For the same molecule, the activity at 0.1 µM (HUVECs; [4]) was 115%, the activity at 0.1 µM (HUVECs; [5]) was 97.7% and the viability at 1 µM (HUVECs; [2]) was 97.8%. It also gave an activity at 1 µM (HUVECs; [3]) of 97.4%, an activity at 1 µM (HUVECs; [4]) of 107% and an activity at 1 µM (HUVECs; [5]) of 102%. The viability at 10 µM (HUVECs; [2]) was 92.7%, the activity at 10 µM (HUVECs; [3]) was 86.8% and the activity at 10 µM (HUVECs; [4]) was 95.9%. It also gave an activity at 10 µM (HUVECs; [5]) of 92.6%, a viability at 100 µM (HUVECs; [2]) of 73.5% and an activity at 100 µM (HUVECs; [3]) of 36.5%. It also gave an activity at 100 µM (HUVECs; [4]) of 11.1%, an activity at 100 µM (HUVECs; [5]) of 80.7% and a minimal effective concentration (HUVECs; 24 hr, read-out: huvec.cyto.24hr POD) of 7.01 µM. It also gave a minimal effective concentration (HUVECs; 24 hr, read-out: huvec.mito.24hr POD) of 3.9 µM, a minimal effective concentration (HUVECs; 24 hr, read-out: huvec.mitoint.24hr POD) of 11.2 µM and a minimal effective concentration (HUVECs; 24 hr, read-out: huvec.nma.24hr POD) of 6.91 µM. It also gave a viability at 0.01 µM (HUVECs; [6]) of 86.4%, a viability at 0.1 µM (HUVECs; [6]) of 96.6% and a viability at 1 µM (HUVECs; [6]) of 97.8%. For the same molecule, the viability at 10 µM (HUVECs; [6]) was 93.3%, the viability at 100 µM (HUVECs; [6]) was 77.9% and the minimal effective concentration (HUVECs; 24 hrs, read-out: huvec.tc.24hrs POD) was 7.01 µM.
